Assay results: patent publication US11554174B2, “Methods for improved protection and delivery of aminothiols and analogs thereof” (THE BURLINGTON HC RESEARCH GROUP, INC., priority 2015, dated 2023)
Like-named read-outs stand apart in the source and are kept apart here.

What was measured:
[1] = system: C3H/10T1/2 cells; conditions: 1 milliM; before, during and after radiation exposure; cited from earlier work
[2] = mouse, in vivo; cited from earlier work
[3] = some in vitro studies; cited from earlier work
[4] = mice, aminothiol delivered as the phosphorothioate, cited from earlier work
[5] = system: radiation-induced tumors; conditions: WR2721 plus radiation; cited from earlier work
[6] = system: radiation-induced tumors; conditions: 400 mg/kg, 206 cGy gamma rays; cited from earlier work
[7] = system: HPRT gene in mouse splenocytes; conditions: cited from earlier work
[8] = system: angiostatin; conditions: cited from earlier work
[9] = system: Sa-NH sarcoma cells; conditions: 50 mg/kg every other day for 6 days; 12 days without; cited from earlier work
[10] = system: Sa-NH tumors; conditions: cited from earlier work
[11] = system: advanced malignant melanoma; conditions: cited from earlier work
[12] = system: normal cells (liver, kidney, small intestine); conditions: cited from earlier work
[13] = children; cited from earlier work
[14] = system: prostate cancer cells; conditions: literature reports; cited from earlier work
[15] = system: TK6 human lymphoblastoid cells; format: cell-based; conditions: 1 milliM cyclophosphamide alone, 72 hours

## CNCCCNCCCS [WR151326]
[1]
  protection factor against neoplastic transformation: 1.8

## NCCCNCCS [WR-1065, 2-(3-aminopropylamino)-ethanethiol]
[1]
  protection factor against neoplastic transformation: 3.23
[2]
  100% effective radioprotective dose: about one half of the MTD
[3]
  lowest efficacious concentration: ≥ 0.4 µM
[4]; i.p.
  maximally tolerated dose (MTD): 432 mg/kg BW
[4]; p.o.
  maximally tolerated dose (MTD): 720 mg/kg BW

## NCCCNCCSP(=O)(O)O [amifostine, S-2-(3-aminopropylamino)-ethylphosphorothioic Acid]
[5]
  mice developing tumors: 26%
[6]
  extension of total life expectancy: 65 days
[7]
  reduction of cyclophosphamide-induced HPRT mutations: 8 fold
[8]; 200 mg/ml (instead of 50 mg/ml)
  change of angiostatin levels: did not change angiostatin levels
[8]; mouse, in vivo
  increase of serum angiostatin levels: 4 fold
[9]
  time for tumors to reach ideal size for amputation: 13 days
[10]; 50 mg/kg
  effect on pulmonary metastases: reduced significantly
[10]; 100 mg/kg
  effect on pulmonary metastases: less effective
[10]; 200 mg/kg
  effect on metastases: no effect
[11]; combination of WR2721 and cisplatin, 3 out of 36 patients
  minor responses: 8%
[11]; combination of WR2721 and cisplatin
  partial response: 53%
[12]; kidney (in vivo)
  level with no observable cytotoxicity: > 17,000 picomol/10(6) cells
[12]; liver (in vivo)
  level with no observable cytotoxicity: > 7400 picomol/10(6) cells
[12]; small intestine (in vivo)
  level with no observable cytotoxicity: > 3000 picomol/10(6) cells
[13]
  single doses with no untoward effects: up to 2700 mg/m2
[14]
  effect upon prostate cancer cells: radioprotective effect

## N.N.[Cl][Pt][Cl] [cisplatin]
[11]; cisplatin alone
  partial response: 10%

## O=P1(N(CCCl)CCCl)NCCCO1 (stereo not drawn) [cyclophosphamide]
[15]
  cell death: 70%
